Laboratory results as given in US6509464B1, “FKBP inhibitors” (Pfizer Inc, priority 1999, dated 2003).

Tests used:
Format in all cases: biochemical
[1] = target: T1, human recombinant FKBP-12 (Homo sapiens, UniProt P62942); test: coupled PPIase (rotamase) assay, Ki,app determination vs. FKBP-12; conditions: tested vs. FKBP-12 and/or FKBP-52; FKBP-12 method; succinyl-AFPF-pNA, 10° C., pH 8.0
Description: (§1) The affinity of the compounds of the formula (I) for FKBP-12 can be determined in vitro in a coupled calorimetric PPlase assay using similar procedures to published methods (e.g. see Kofron, J. L., et al., Biochemistry, 1991, 30, 6127-6134, Zarnt, T., et al., Biochem. J. 1995, 305, 159-164, Holt, D. A., et al., J. Am. Chem. Soc., 1993, 115, 9925-9938). In these methods, the cis-trans isomerisation of a hydrophobic amino acid-proline bond in a tetrapeptide substrate (e.g. the phenylalanine-proline bond in N-succinyl-ala-phe-pro-phe-p-nitroanilide [succinyl-AFPF-pNA]) can be determined by monitoring cleavage of pNA from the transPro-containing peptide by an excess of chymotrypsin.
(§2) Assay buffer (2.175 ml) (50 mM HEPES, 100 mM NaCl, 1 mM DTT, pH 8.0) is equilibrated to 10° C. in a cuvette. 12.5 μl of a solution of the present compound in DMSO, 250 μl of a 60 mg/ml solution of α-chymotrypsin in 1 mM aqueous hydrochloric acid and then 50 μL of a solution of human recombinant FKBP-12 (1.5 μM) in assay buffer are added and mixed. The reaction is initiated by adding 12.5 μl of a solution of anhydrous succinyl-AFPF-pNA (100 μM final concentration) in a 400 mM solution of LiCl in trifluoroethanol. The absorbance at 390 nm is monitored for 3 minutes collecting data every 0.5 second. Data are fitted with a first order rate equation with offset and the initial velocity (v) is calculated from the concentration of cis (re leu-pro bond)-succinyl-AFPF-pNA at to and the first order rate constant at different inhibitor concentrations (I). Data in the form vinh/vcontrol v. [I] are fitted with an equation for reversible tight binding inhibition to generate values for Kiapp (see Morrison, J. F., et al, Comments Mol. Cell Biophys., 1985, 2, 347-368). This analysis is used when the Ki,app approaches the concentration of FKBP-12 in the assay (30 nM).

[2] = target: T2, human recombinant FKBP-52 (Homo sapiens, UniProt Q02790); test: coupled PPIase (rotamase) assay, Ki,app determination vs. FKBP-52; conditions: tested vs. FKBP-12 and/or FKBP-52; FKBP-52 method; succinyl-AFPF-pNA, 10° C., pH 8.0
T2 sequence (Q02790 1-459): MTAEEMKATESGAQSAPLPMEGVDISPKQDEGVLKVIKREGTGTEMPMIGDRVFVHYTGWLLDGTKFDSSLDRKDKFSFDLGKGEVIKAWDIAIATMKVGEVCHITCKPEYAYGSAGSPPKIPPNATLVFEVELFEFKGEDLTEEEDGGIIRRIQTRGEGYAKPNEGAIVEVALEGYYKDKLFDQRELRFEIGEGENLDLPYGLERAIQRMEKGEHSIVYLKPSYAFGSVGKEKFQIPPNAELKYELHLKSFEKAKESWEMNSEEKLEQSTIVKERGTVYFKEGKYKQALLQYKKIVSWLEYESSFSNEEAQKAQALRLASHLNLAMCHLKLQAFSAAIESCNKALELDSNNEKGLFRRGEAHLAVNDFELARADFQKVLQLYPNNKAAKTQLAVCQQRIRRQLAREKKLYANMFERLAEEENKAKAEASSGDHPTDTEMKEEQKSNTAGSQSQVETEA
Method: as §2
The same methodology is used to measure Ki,app for FKBP-52, with the following modifications: 40 μl human recombinant FKBP-52 (5.2 μM) is substituted for FKBP-12 and 2.185 ml assay buffer are used in the assay.

[3] = target: T1, human recombinant FKBP-12; test: coupled PPIase (rotamase) assay, IC50 determination vs. FKBP-12; conditions: tested vs. FKBP-12 and/or FKBP-52; succinyl-AFPF-pNA substrate, chymotrypsin-coupled, 10° C., pH 8.0
Description: as §1
The IC50 (the concentration of the compound of the formula (I) producing 50% inhibition) values were determined using the following assay methodology. Assay buffer (2.175 ml) (50 mM 4-(2-hydroxyethyl)-1-piperazineethanesulphonic acid (HEPES), 100 mM NaCl, 1 mM dithiothreitol (DTT), pH 8.0) is equilibrated to 10° C. in a cuvette. 12.5 μl of a solution of the present compound in DMSO, 250 μl of a 60 mg/ml solution of α-chymotrypsin in 1 mM aqueous hydrochloric acid and then 50 μl of a solution of human recombinant FKBP-12 (4.5 μM) in assay buffer are added and mixed. The reaction is initiated by addition of 12.5 μl of a solution of 20 mM succinyl-AFPF-pNA in DMSO. The absorbance at 390 nm is monitored for one minute collecting data every 0.25 second. Data are fitted with a first order rate equation with offset and the rate constant obtained corrected for the rate of uncatalysed isomerisation of the substrate. The rate constant determined at different inhibitor concentrations (10 nM to 100 μM) is expressed as % inhibition of the control rate constant. The IC50 is estimated using a nonlinear least squares curve fitting routine of the sigmoidal dose response data.

T1 sequence (P62942 whole entry): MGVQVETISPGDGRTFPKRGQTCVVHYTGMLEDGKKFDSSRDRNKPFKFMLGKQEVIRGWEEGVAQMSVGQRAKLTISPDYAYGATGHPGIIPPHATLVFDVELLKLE

Cc1cccc2[nH]c(N3CCCC[C@H]3C(=O)NCCN3[C@H](C)CCC[C@@H]3C)nc12 [Example 27]
< 1000 nM: Ki [1] | Ki [2] | IC50 [3]

Cc1cc2nc(N3CCCC[C@H]3C(=O)NCCN3[C@H](C)CCC[C@@H]3C)oc2cc1C [Example 31, (2S)-N^2-2-[(cis)-2,6-Dimethyl-1-piperidinyl]ethyl-1-[5,6-dimethyl-1,3-benzoxazol-2-yl]-2-piperidinecarboxamide]
< 1000 nM: Ki [1] | Ki [2] | IC50 [3]

CC1COCC(C)N1CCNC(=O)[C@@H]1CCCCN1c1nc2ccccc2o1 (stereo partly drawn) [Example 12, (2S)-1-(1,3-Benzoxazol-2-yl)-N^2-[2-(3,5-dimethylmorpholino)ethyl]-2-piperidinecarboxamide]
< 1000 nM: Ki [1] | Ki [2] | IC50 [3]

C[C@@H]1CCC[C@H](C)N1CCNC(=O)[C@@H]1CCCCN1c1nc2ccccc2[nH]1 [Example 17]
< 1000 nM: Ki [1] | Ki [2] | IC50 [3]

C[C@@H]1CCC[C@H](C)N1CCNC(=O)[C@@H]1CCCCN1c1nc2ccccc2o1 [Example 3, (2S)-1-(1,3-Benzoxazol-2-yl)-N^2-2-[(cis)-2,6-dimethyl-1-piperidinyl]ethyl-2-piperidinecarboxamide]
< 1000 nM: Ki [1] | Ki [2] | IC50 [3]

COc1ccc2[nH]c(N3CCCC[C@H]3C(=O)NCCN3[C@H](C)CCC[C@@H]3C)nc2c1 [Example 18]
< 1000 nM: Ki [1] | Ki [2] | IC50 [3]

CC(C)NC(=O)N1C[C@@H](C)N(CCNC(=O)[C@@H]2CCCCN2c2nc3ccccc3o2)[C@@H](C)C1 [Example 11, (cis)-4-[2-([(2S)-1-(1,3-Benzoxazol-2-yl)-2-piperidinyl]carbonylamino)ethyl]-N^1-isopropyl-3,5-dimethyl-1-piperazinecarboxamide]
< 1000 nM: Ki [1] | Ki [2] | IC50 [3]

C[C@@H]1CCC[C@H](C)N1CCNC(=O)[C@@H]1CCCCN1c1nc2ccc(F)cc2[nH]1 [Example 19]
< 1000 nM: Ki [1] | Ki [2] | IC50 [3]
